Laboratory results reported in PubChem BioAssay (NCI).
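Dose response: 5 concentrations. Exposure: 48 h. Format: 96-well plates. Endpoint: linear interpolation; highest concentration if not reached. The concentration for 50% growth inhibition is given as GI50. TGI marks complete inhibition of growth.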

Columns and labels:
Assay in all cases: DTP human tumour cell line panel, 48 h
SK-MEL-5 melanoma = system: SK-MEL-5 melanoma
NCI-H522 lung = system: NCI-H522 lung
SK-MEL-2 melanoma = system: SK-MEL-2 melanoma
786-0 renal = system: 786-0 renal
SW-620 colon = system: SW-620 colon
NCI-H23 lung = system: NCI-H23 lung
HCT-15 colon = system: HCT-15 colon
BT-549 breast = system: BT-549 breast
T-47D breast = system: T-47D breast
DU-145 prostate = system: DU-145 prostate

| Compound | TGI (SK-MEL-5 melanoma) [µM] | TGI (NCI-H522 lung) [µM] | TGI (SK-MEL-2 melanoma) [µM] | TGI (786-0 renal) [µM] | TGI (SW-620 colon) [µM] | TGI (NCI-H23 lung) [µM] | TGI (HCT-15 colon) [µM] | GI50 (SK-MEL-5 melanoma) [µM] | GI50 (BT-549 breast) [µM] | TGI (BT-549 breast) [µM] | GI50 (T-47D breast) [µM] | TGI (T-47D breast) [µM] | GI50 (SK-MEL-2 melanoma) [µM] | GI50 (786-0 renal) [µM] | GI50 (SW-620 colon) [µM] | GI50 (NCI-H23 lung) [µM] | GI50 (DU-145 prostate) [µM] | TGI (DU-145 prostate) [µM] | GI50 (HCT-15 colon) [µM] | GI50 (NCI-H522 lung) [µM] |
| --- | --- | --- | --- | --- | --- | --- | --- | --- | --- | --- | --- | --- | --- | --- | --- | --- | --- | --- | --- | --- |
| CC1C[C@]2(C[C@@H](C)C(=O)O2)O[C@@H]2CC3(C)[C@@H]4CCC5C(C)(C)OC(=O)C[C@H]6OO[C@]4(CC[C@]3(C)C12)CC56O (some centres not stated) | > 100 | > 100 | > 100 | > 100 | > 100 | > 100 | > 100 |  |  |  |  |  |  |  |  |  |  |  |  |  |
| CNS(=O)(=O)NN(C)S(=O)(=O)c1ccc2ccccc2c1 | > 100 | > 100 | > 100 | > 100 | > 100 | > 100 | > 100 |  |  |  |  |  |  |  |  |  |  |  |  |  |
| O=S(=O)([O-])[O-].[Cl-].[NH2-].[NH2-].[NH2-].[NH2-].[Ru+3].c1ccncc1 | > 100 | > 100 | > 100 | > 100 | > 100 | > 100 | > 100 |  |  |  |  |  |  |  |  |  |  |  |  |  |
| C#CC1(O)c2ccccc2C(=O)c2ccccc21 |  | > 100 | > 100 | > 100 | > 100 | > 100 |  |  |  |  |  |  |  |  |  |  |  |  |  |  |
| CCOC(=O)[C@H]1Nc2ccc([N+](=O)[O-])cc2C2c3ccccc3CC21 (some centres not stated) | 30.7 | 29.3 | 72.3 | 43.9 | 41.6 | 73.6 | 41.5 |  |  |  |  |  |  |  |  |  |  |  |  |  |
| CCCNC(=O)c1ccc(Cl)cc1Cl | > 100 |  | > 100 | > 100 | > 100 | > 100 | > 100 | > 100 | > 100 | > 100 | > 100 | > 100 | > 100 | > 100 | > 100 | > 100 | > 100 | > 100 | > 100 |  |
| Cc1cc(N2CCCC2)nc(NCc2cc(Nc3ccnc4cc(Cl)ccc34)ccc2F)n1 | 2.2 | 3.09 | 3.31 | 2.84 |  | 3.63 | 2.35 | 1.01 | 1.54 | 3.3 |  |  | 1.74 | 1.34 |  | 1.3 | 1.3 | 2.69 | 1.06 | 1.41 |
| CC(CNCCCNCCNCCCNCO)[N+](=O)[O-] (configuration not stated) | 29.9 |  | 29.4 | 29.3 | 12.2 | 28.6 | 23.2 |  |  |  |  |  |  |  |  |  |  |  |  |  |
| COc1cc(-c2cc(/C=C/C(=O)c3ccc(Cl)c(Cl)c3)[nH]n2)cc(OC)c1OC | 46.9 | 3.04 | 34.1 | 68 | 79.6 | > 100 |  | 13.4 | 8.4 | 29.2 | 1.66 | 15.7 | 13.9 | 10.1 | 8.63 | 23.4 |  |  | 4.29 | 1.33 |
| CC(=O)C1=C(C)N(C)C2(O)C=CC(=O)C3=C(O)c4ccccc4C(=O)C312 (configuration not stated) | 9.02 | > 100 | > 100 | 7.36 | 33.5 | 46 | 21.7 | 2.51 | 13.6 | 27.9 |  |  | 30.6 | 2.59 | 4.41 | 5.21 | 5.27 | 21.8 | 5.41 | 23.8 |
| CC1=C(C(=O)Nc2ccc([N+](=O)[O-])cc2)C(c2ccc3c(c2)OCO3)C(C(=O)Nc2ccc([N+](=O)[O-])cc2)=C(C)N1 |  | > 100 | 35 | > 100 | > 100 | 57.9 | > 100 |  |  |  |  |  |  |  |  |  |  |  |  |  |
| Cc1ccc(-c2cc(=O)c3cc(C)c(C)c(C(=O)O)c3o2)cc1N | > 100 | > 100 | > 100 | > 100 | > 100 | > 100 | > 100 |  |  |  |  |  |  |  |  |  |  |  |  |  |
| COc1cc(C2C3=C(COC3=O)Nc3c2ccc2c3CCCC2)cc2c1OCO2 (configuration not stated) | 0.199 | 1.46 | 27.4 | 14.4 | > 100 | 13.7 | > 100 | 0.0381 | 0.118 | 30.5 |  |  | 0.068 | 0.0757 | 0.0399 | 0.0439 | 0.0416 | 0.505 | 0.0432 | 0.0239 |
| C=CC/C(=C\COP(=O)(OCc1ccc([N+](=O)[O-])o1)N(C)CCCCCl)CC/C=C(\C)CCC=C(C)C (configuration not stated) |  |  | 26.4 | 25.9 | 21.3 |  | 30.4 |  |  |  | 20.6 | 53.9 | 13.6 | 13.2 | 9.44 |  | 11.6 | 23.8 | 12.8 |  |
| C=C1C2CC(OC(C)=O)C3(C)C(c4ccoc4)OC(=O)[C@@H](O)[C@]13OC1C[C@H](OC(C)=O)C(C)(C)[C@H](CC(=O)OC)[C@]12C (some centres not stated) | > 100 |  | > 100 | > 100 | > 100 | > 100 | > 100 |  |  |  |  |  |  |  |  |  |  |  |  |  |
| CC12CO[C@@](C)(CC(S(=O)(=O)c3ccccc3)C1)O2 (some centres not stated) | > 100 | > 100 | > 100 | > 100 | > 100 | > 100 | > 100 |  |  |  |  |  |  |  |  |  |  |  |  |  |
| CCOC(=O)c1c(C)nc2c(c1N)CC(=O)N2CCc1ccccc1 | 13.6 | 1.11 | 6.8 | 17.1 | 11.1 | 23 | 13.6 | 0.939 |  |  | 0.962 | 22.9 | 0.53 | 0.466 | 0.47 | 5.46 | 0.881 | 16 | 0.485 | 0.283 |
| CC(/C=C/c1ccccc1)=N\NC(N)=S | > 100 |  |  | > 100 | > 100 | > 100 | > 100 |  |  | > 100 |  | 49.1 |  |  |  |  |  | > 100 |  |  |
| COc1ccc(/C(Cl)=C(\c2ccc(OCCN(C)C)cc2)c2ccc(OC(=O)C(C)(C)C)cc2)cc1 | 27 | 28.6 | 29.4 | 22.6 | 28.6 | 29.1 | 22.4 |  |  |  |  |  |  |  |  |  |  |  |  |  |
